These results are taken from patent US9439422B2, “Use of macrocyclic picolinamides as fungicides” (DOW AGROSCIENCES LLC, priority 2013, dated 2016).

Like-named read-outs stand apart in the source and are kept apart here.

Test [1] concerns Mycosphaerella graminicola; Anamorph: Septoria tritici. The test can be described thus: Leaf Blotch of Wheat (SEPTTR) disease control on wheat seedlings. The note with it: Zymoseptoria tritici; for pest or weed control at 100 ppm: rate 100 ppm; for pest or weed control at 121.5 g/ha: rate 121.5 g/H. The test is classed as in vivo. Here is the method: Evaluation of Fungicidal Activity: Leaf Blotch of Wheat (Mycosphaerella graminicola; Anamorph: Septoria tritici; Bayer Code […]) Technical grades of materials were dissolved in acetone, which were then mixed with nine volumes of water containing 110 ppm Triton X-100. The fungicide solutions were applied onto wheat seedlings using an automated booth sprayer to run-off. All sprayed plants were allowed to air dry prior to further handling. All fungicides were evaluated using the aforementioned method for their activity vs. all target diseases. Wheat leaf blotch and brown rust activity were also evaluated using track spray applications, in which case the fungicides were formulated as EC formulations, containing 0.1% Trycol 5941 in the spray solutions. Wheat plants (variety Yuma) were grown from seed in a greenhouse in 50% mineral soil/50% soil-less Metro mix until the first leaf was fully emerged, with 7-10 seedlings per pot. These plants were inoculated with an aqueous spore suspension of Septoria tritici either prior to or after fungicide treatments. After inoculation the plants were kept in 100% relative humidity (one day in a dark dew chamber followed by two to three days in a lighted dew chamber at 20° C.) to permit spores to germinate and infect the leaf. The plants were then transferred to a greenhouse set at 20° C. for disease to develop. When disease symptoms were fully expressed on the 1st leaves of untreated plants, infection levels were assessed on a scale of 0 to 100 percent disease severity. Percent disease control was calculated using the ratio of disease severity on treated plants relative to untreated plants.

For test [2], the system named is Puccinia triticina; Synonym: Puccinia recondite f. sp. tritici. The test can be described thus: Wheat Brown Rust (PUCCRT) disease control on wheat seedlings. Conditions: for pest or weed control at 100 ppm: rate 100 ppm; for pest or weed control at 121.5 g/ha: rate 121.5 g/H. It counts as in vivo. Here is the method:
Technical grades of materials were dissolved in acetone, which were then mixed with nine volumes of water containing 110 ppm Triton X-100. The fungicide solutions were applied onto wheat seedlings using an automated booth sprayer to run-off. All sprayed plants were allowed to air dry prior to further handling. All fungicides were evaluated using the aforementioned method for their activity vs. all target diseases. Wheat leaf blotch and brown rust activity were also evaluated using track spray applications, in which case the fungicides were formulated as EC formulations, containing 0.1% Trycol 5941 in the spray solutions. Wheat plants (variety Yuma) were grown from seed in a greenhouse in 50% mineral soil/50% soil-less Metro mix until the first leaf was fully emerged, with 7-10 seedlings per pot. These plants were inoculated with an aqueous spore suspension of Septoria tritici either prior to or after fungicide treatments. After inoculation the plants were kept in 100% relative humidity (one day in a dark dew chamber followed by two to three days in a lighted dew chamber at 20° C.) to permit spores to germinate and infect the leaf. The plants were then transferred to a greenhouse set at 20° C. for disease to develop. When disease symptoms were fully expressed on the 1st leaves of untreated plants, infection levels were assessed on a scale of 0 to 100 percent disease severity. Percent disease control was calculated using the ratio of disease severity on treated plants relative to untreated plants. Evaluation of Fungicidal Activity: Wheat Brown Rust (Puccinia triticina; Synonym: Puccinia recondite f. sp. tritici; Bayer Code PUCCRT) Wheat plants (variety Yuma) were grown from seed in a greenhouse in 50% mineral soil/50% soil-less Metro mix until the first leaf was fully emerged, with 7-10 seedlings per pot. These plants were inoculated with an aqueous spore suspension of Puccinia triticina either prior to or after fungicide treatments. After inoculation the plants were kept in a dark dew room at 22° C. with 100% relative humidity overnight to permit spores to germinate and infect the leaf. The plants were then transferred to a greenhouse set at 24° C. for disease to develop. Fungicide formulation, application and disease assessment followed the procedures as described in the Example A.

[3] abbreviates: 24 h, 1 Day Protectant, read-out: SEPTTR disease control, 1DP.
[4] abbreviates: 72 h, 3 Day Curative, read-out: SEPTTR disease control, 3DC.
[5] abbreviates: 24 h, 1 Day Protectant, read-out: PUCCRT disease control, 1DP.
[6] abbreviates: 72 h, 3 Day Curative, read-out: PUCCRT disease control, 3DC.

Consider `COc1ccnc(C(=O)N[C@H]2COC[C@H](Cc3ccc(C(F)(F)F)cc3)[C@@H](OC(=O)C(C)C)[C@H](C)OC2=O)c1O` [Compound F30], for which the values for the pest or weed control at 100 ppm in test [1] (setting [3]), in test [1] (setting [4]) and in test [2] (setting [5]) were 80 to 100%, 0 to 80% and 80 to 100%, respectively.

Take `CCOCC(=O)OCOc1c(OC)ccnc1C(=O)N[C@H]1COC[C@H](CC2CCCC2)[C@@H](OCC(C)C)[C@H](C)OC1=O` [Compound F121]: the pest or weed control at 100 ppm in test [1] (setting [3]), in test [1] (setting [4]), in test [2] (setting [5]) and in test [2] (setting [6]) was 80 to 100% each time. Further, the pest or weed control at 121.5 g/ha in test [1] (setting [3]), in test [1] (setting [4]), in test [2] (setting [5]) and in test [2] (setting [6]) was 80 to 100% throughout.
